ChEMBL document CHEMBL1201862, “PubChem BioAssay data set” (2004)
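Values below derive from 48-hour exposures of cells grown in 96-well plates, with endpoints linearly interpolated between the two concentrations bracketing the appropriate inhibition level. GI50: concentration for 50% inhibition of growth.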 Active and inactive are the calls of the source. Cut-off read from the data, not from the text of the source: active = GI50 up to about 1.1 µM and inactive = higher.

Columns and labels:
Test in all cases: NCI tumour cell line growth inhibition, 48 h
SN12C = test system: SN12C
MDA-MB-231 = test system: MDA-MB-231
COLO 205 = test system: COLO 205
HOP-92 = test system: HOP-92
UACC-257 = test system: UACC-257
NCI/ADR-RES = test system: NCI/ADR-RES
HCC 2998 = test system: HCC 2998
T47D = test system: T47D
M14 = test system: M14
TK-10 = test system: TK-10
NCI-H522 = test system: NCI-H522
NCI-H226 = test system: NCI-H226
NCI-H460 = test system: NCI-H460
HCT-116 = test system: HCT-116
MDA-MB-435 = test system: MDA-MB-435
SW-620 = test system: SW-620
UACC-62 = test system: UACC-62
OVCAR-3 = test system: OVCAR-3
SF-268 = test system: SF-268
ACHN = test system: ACHN
RPMI-8226 = test system: RPMI-8226
A549 = test system: A549
NCI-H23 = test system: NCI-H23
U-251 = test system: U-251
IGROV-1 = test system: IGROV-1
K562 = test system: K562
MDA-N = test system: MDA-N
Malme-3M = test system: Malme-3M
BT-549 = test system: BT-549
LOX IMVI = test system: LOX IMVI
EKVX = test system: EKVX
SF-295 = test system: SF-295
MCF7 = test system: MCF7
HCT-15 = test system: HCT-15
MOLT-4 = test system: MOLT-4
PC-3 = test system: PC-3
RXF 393 = test system: RXF 393
Hs-578T = test system: Hs-578T
UO-31 = test system: UO-31
SNB-19 = test system: SNB-19
OVCAR-4 = test system: OVCAR-4
SR = test system: SR
HL-60 = test system: HL-60
HOP-62 = test system: HOP-62
CCRF-CEM = test system: CCRF-CEM
KM12 = test system: KM12
SK-MEL-28 = test system: SK-MEL-28
OVCAR-5 = test system: OVCAR-5
CAKI-1 = test system: CAKI-1
OVCAR-8 = test system: OVCAR-8
A498 = test system: A498
SK-MEL-5 = test system: SK-MEL-5
SF-539 = test system: SF-539
786-0 = test system: 786-0
SK-MEL-2 = test system: SK-MEL-2
HT-29 = test system: HT-29
DU-145 = test system: DU-145
SNB-75 = test system: SNB-75
SK-OV-3 = test system: SK-OV-3

CN1CCN(c2cc3nc4cc(O)cc(O)c4c(O)c3cc2N)CC1
GI50 (SN12C): 1.5 µM (inactive) | GI50 (MDA-MB-231): 1.53 µM (inactive) | GI50 (COLO 205): 14 µM (inactive) | GI50 (HOP-92): 10.6 µM (inactive) | GI50 (UACC-257): 38.8 µM (inactive) | GI50 (NCI/ADR-RES): 57.5 µM (inactive) | GI50 (HCC 2998): 16.2 µM (inactive) | GI50 (T47D): 21.6 µM (inactive) | GI50 (M14): 37.1 µM (inactive) | GI50 (TK-10): 30.7 µM (inactive) | GI50 (NCI-H522): 19.5 µM (inactive) | GI50 (NCI-H226): 1.95 µM (inactive) | GI50 (NCI-H460): 36.3 µM (inactive) | GI50 (HCT-116): 35.8 µM (inactive) | GI50 (MDA-MB-435): 18.1 µM (inactive) | GI50 (SW-620): 21.9 µM (inactive) | GI50 (UACC-62): 1.57 µM (inactive) | GI50 (OVCAR-3): 20.7 µM (inactive) | GI50 (SF-268): 15.9 µM (inactive) | GI50 (ACHN): 27.5 µM (inactive) | GI50 (RPMI-8226): 20.8 µM (inactive) | GI50 (A549): 61 µM (inactive) | GI50 (NCI-H23): 40.6 µM (inactive) | GI50 (U-251): 17.6 µM (inactive) | GI50 (IGROV-1): 20.2 µM (inactive) | GI50 (K562): 14.5 µM (inactive) | GI50 (MDA-N): 23.4 µM (inactive) | GI50 (Malme-3M): 24.6 µM (inactive) | GI50 (BT-549): 28.6 µM (inactive) | GI50 (LOX IMVI): 16.2 µM (inactive) | GI50 (EKVX): 19.4 µM (inactive) | GI50 (SF-295): 32.7 µM (inactive) | GI50 (MCF7): 17.7 µM (inactive) | GI50 (HCT-15): 67 µM | GI50 (MOLT-4): 0.33 µM (active) | GI50 (PC-3): 18.1 µM (inactive) | GI50 (RXF 393): 20.7 µM (inactive) | GI50 (Hs-578T): 29.7 µM (inactive) | GI50 (UO-31): 19.7 µM (inactive) | GI50 (SNB-19): 37.1 µM (inactive) | GI50 (OVCAR-4): 27.4 µM (inactive) | GI50 (SR): 6.14 µM (inactive) | GI50 (HL-60): 20.1 µM (inactive) | GI50 (HOP-62): 33.6 µM (inactive) | GI50 (CCRF-CEM): 13.4 µM (inactive) | GI50 (KM12): 27.4 µM (inactive) | GI50 (SK-MEL-28): 27.2 µM (inactive) | GI50 (OVCAR-5): 23.9 µM (inactive) | GI50 (CAKI-1): 23.3 µM (inactive) | GI50 (OVCAR-8): 26.2 µM (inactive) | GI50 (A498): 21.6 µM (inactive) | GI50 (SK-MEL-5): 18.5 µM (inactive) | GI50 (SF-539): 0.608 µM (active) | GI50 (786-0): 38.7 µM (inactive) | GI50 (SK-MEL-2): 19.4 µM (inactive) | GI50 (HT-29): 23.2 µM (inactive) | GI50 (DU-145): 46.5 µM (inactive) | GI50 (SNB-75): 18.2 µM (inactive)

c1ccc(C2=Nc3cccc4cccc(c34)N2)cc1
GI50 (SN12C): > 78.7 µM (inactive) | GI50 (MDA-MB-231): 19.7 µM (inactive) | GI50 (COLO 205): 18.6 µM (inactive) | GI50 (HOP-92): 24.4 µM (inactive) | GI50 (UACC-257): > 69.5 µM (inactive) | GI50 (NCI/ADR-RES): 30.8 µM (inactive) | GI50 (HCC 2998): 43.9 µM (inactive) | GI50 (T47D): 4.63 µM (inactive) | GI50 (M14): 44.7 µM (inactive) | GI50 (TK-10): 48.9 µM (inactive) | GI50 (NCI-H522): 12.2 µM (inactive) | GI50 (NCI-H226): > 78.3 µM (inactive) | GI50 (NCI-H460): 57 µM (inactive) | GI50 (HCT-116): 23.3 µM (inactive) | GI50 (MDA-MB-435): 48.8 µM (inactive) | GI50 (SW-620): 20.4 µM (inactive) | GI50 (UACC-62): 37.9 µM (inactive) | GI50 (OVCAR-3): 23.7 µM (inactive) | GI50 (SF-268): 44.8 µM (inactive) | GI50 (ACHN): 26.2 µM (inactive) | GI50 (RPMI-8226): 22.6 µM (inactive) | GI50 (A549): 56.9 µM (inactive) | GI50 (NCI-H23): > 60.5 µM (inactive) | GI50 (U-251): > 100 µM (inactive) | GI50 (IGROV-1): > 54.6 µM (inactive) | GI50 (K562): 32 µM (inactive) | GI50 (MDA-N): 45.3 µM (inactive) | GI50 (Malme-3M): 43.5 µM (inactive) | GI50 (BT-549): > 44.2 µM (inactive) | GI50 (LOX IMVI): 23.5 µM (inactive) | GI50 (EKVX): > 51.1 µM (inactive) | GI50 (SF-295): 58.2 µM (inactive) | GI50 (MCF7): 40.8 µM (inactive) | GI50 (HCT-15): 28.6 µM | GI50 (PC-3): 22.8 µM (inactive) | GI50 (RXF 393): 22 µM (inactive) | GI50 (Hs-578T): 58.1 µM (inactive) | GI50 (UO-31): 21.3 µM (inactive) | GI50 (SNB-19): > 100 µM (inactive) | GI50 (OVCAR-4): 18.7 µM (inactive) | GI50 (SR): 9.48 µM (inactive) | GI50 (HL-60): 2.88 µM (inactive) | GI50 (HOP-62): > 100 µM (inactive) | GI50 (SK-OV-3): > 100 µM (inactive) | GI50 (CCRF-CEM): 3.82 µM (inactive) | GI50 (KM12): 28.3 µM (inactive) | GI50 (SK-MEL-28): > 79.1 µM (inactive) | GI50 (OVCAR-5): 69.5 µM (inactive) | GI50 (CAKI-1): 37.2 µM (inactive) | GI50 (OVCAR-8): 35.5 µM (inactive) | GI50 (A498): > 100 µM (inactive) | GI50 (SK-MEL-5): 56.2 µM (inactive) | GI50 (SF-539): 56.2 µM (inactive) | GI50 (786-0): 42.8 µM (inactive) | GI50 (SK-MEL-2): > 46.3 µM (inactive) | GI50 (HT-29): 43.5 µM (inactive) | GI50 (DU-145): > 90.2 µM (inactive) | GI50 (SNB-75): > 90.6 µM (inactive)

Oc1cc(Cl)cc2cc(Cl)cnc12
GI50 (SN12C): 2.3 µM (inactive) | GI50 (MDA-MB-231): 3.56 µM (inactive) | GI50 (COLO 205): 31 µM (inactive) | GI50 (HOP-92): 21.5 µM (inactive) | GI50 (UACC-257): 3.73 µM (inactive) | GI50 (NCI/ADR-RES): 1.49 µM (inactive) | GI50 (HCC 2998): 25.1 µM (inactive) | GI50 (T47D): 3.34 µM (inactive) | GI50 (M14): 3.3 µM (inactive) | GI50 (TK-10): 27.5 µM (inactive) | GI50 (NCI-H522): 3.16 µM (inactive) | GI50 (NCI-H226): 19.5 µM (inactive) | GI50 (NCI-H460): 1.79 µM (inactive) | GI50 (HCT-116): 2.67 µM (inactive) | GI50 (MDA-MB-435): 2.87 µM (inactive) | GI50 (SW-620): 3.15 µM (inactive) | GI50 (UACC-62): 2.49 µM (inactive) | GI50 (OVCAR-3): 0.582 µM (active) | GI50 (SF-268): 1.14 µM (inactive) | GI50 (ACHN): 2.44 µM (inactive) | GI50 (RPMI-8226): 2.59 µM (inactive) | GI50 (A549): 3.22 µM (inactive) | GI50 (NCI-H23): 2.75 µM (inactive) | GI50 (U-251): 2.42 µM (inactive) | GI50 (IGROV-1): 0.596 µM (active) | GI50 (K562): 0.989 µM (active) | GI50 (MDA-N): 6.34 µM (inactive) | GI50 (Malme-3M): 2.25 µM (inactive) | GI50 (BT-549): 4.73 µM (inactive) | GI50 (LOX IMVI): 0.597 µM (active) | GI50 (EKVX): 2.85 µM (inactive) | GI50 (SF-295): 1.92 µM (inactive) | GI50 (MCF7): 3.4 µM (inactive) | GI50 (HCT-15): 0.598 µM | GI50 (MOLT-4): 2.89 µM (inactive) | GI50 (PC-3): 2.94 µM (inactive) | GI50 (RXF 393): 5.07 µM (inactive) | GI50 (Hs-578T): 22.1 µM (inactive) | GI50 (UO-31): 3.21 µM (inactive) | GI50 (SNB-19): 4 µM (inactive) | GI50 (OVCAR-4): 1.55 µM (inactive) | GI50 (SR): 1.56 µM (inactive) | GI50 (HL-60): 0.288 µM (active) | GI50 (HOP-62): 7.41 µM (inactive) | GI50 (SK-OV-3): 30.8 µM (inactive) | GI50 (CCRF-CEM): 1.78 µM (inactive) | GI50 (KM12): 5.13 µM (inactive) | GI50 (SK-MEL-28): 5.12 µM (inactive) | GI50 (OVCAR-5): 17.5 µM (inactive) | GI50 (CAKI-1): 12.9 µM (inactive) | GI50 (OVCAR-8): 2.28 µM (inactive) | GI50 (A498): 12.5 µM (inactive) | GI50 (SK-MEL-5): 3.67 µM (inactive) | GI50 (SF-539): 3.24 µM (inactive) | GI50 (786-0): 23 µM (inactive) | GI50 (HT-29): 22.8 µM (inactive) | GI50 (DU-145): 6.47 µM (inactive) | GI50 (SNB-75): 5.35 µM (inactive)
